PMC5991599, “Anti‐tumor efficacy of a novel CLK inhibitor via targeting RNA splicing and MYC‐dependent vulnerability” (EMBO Molecular Medicine, 2018)

Experiments:
786-O = test: Cell proliferation assay (CellTiter-Glo); assay type: cell-based; details: Homo sapiens, 786-0; 72 h treatment; kidney cancer; read-out: IC50 (growth inhibition)
Method: (§1) Cell proliferation assay, Caspase-3/7 assay
(§2) Cell proliferation was measured using CellTiter-Glo luminescent cell viability
(§3) assay (Promega, Fitchburg, WI, U.S.A.). Caspase-3/7 activity was measured using
(§4) Caspase-Glo 3/7 Assay Systems (Promega). Luminescence of each well was measured
(§5) using ARVO Light (PerkinElmer Inc., Waltham, MA, U.S.A.). The IC50 value and 95%
(§6) confidential intervals were estimated using GraphPad Prism 5 (GraphPad Software,
(§7) Inc., La Jolla, CA, U.S.A.). […]

COLO320HSR = test: Cell proliferation assay (CellTiter-Glo); assay type: cell-based; details: Homo sapiens, COLO-320-HSR; 72 h treatment; colorectal cancer; read-out: IC50 (growth inhibition)
Method: as §1, §2, §3, §4, §5, §6, §7

MDA-MB-468 [1] = test: Cell proliferation assay (CellTiter-Glo); assay type: cell-based; details: Homo sapiens, 72 h treatment, breast cancer, read-out: IC50 (growth inhibition)
Method: as §1, §2, §3, §4, §5, §6, §7

Wi38 = test: Cell proliferation assay (CellTiter-Glo); assay type: cell-based; details: Homo sapiens, WI-38; 72 h treatment; normal lung fibroblast; read-out: IC50 (growth inhibition)
Method: as §1, §2, §3, §4, §5, §6, §7

BJ = test: Cell proliferation assay (CellTiter-Glo); assay type: cell-based; details: Homo sapiens, 72 h treatment, normal skin fibroblast, read-out: IC50 (growth inhibition)
Method: as §1, §2, §3, §4, §5, §6, §7

NCI-H1048 = test: Cell proliferation assay (CellTiter-Glo); assay type: cell-based; details: Homo sapiens, 72 h treatment, lung cancer, read-out: IC50 (growth inhibition)
Method: as §1, §2, §3, §4, §5, §6, §7

MEG01 = test: Panel of growth inhibition assays (OncoPanel 240); assay type: cell-based; details: Homo sapiens, MEG-01; 72 h; leukemia; read-out: IC50 (Oncopanel, cell count)
Method: (§8) The KINOMEScan‐based kinase selectivity assay was performed at the DiscoverX Corporation (Fremont, CA, USA). The panel of growth inhibition assay and subsequent bioinformatics analysis (Fig EV1) were performed at Eurofins Inc. (St. Charles, MO, USA), using OncoPanel 240 or 60. Details of the procedures of cell proliferation assay, caspase‐3/7 activity assay, immunoblotting, and immunohistochemistry are described in Appendix Supplementary Methods.
(§9) Panel of growth inhibition assay and subsequence bioinformatics analysis (at […]
(§10) A growth inhibition assay panel and subsequent bioinformatics analysis were performed at Eurofins Inc. (MO, U.S.A.) by utilizing Oncopanel240 or 60.
(§11) According to the study reports from Eurofins Inc., cells were seeded into 384 well plates at a single cell density in standardized media. After 24 hours, the test compounds were added and the plate was incubated continuously for 72 hours. Cells were then fixed and stained to visualize nuclei. The number of nuclei was counted and normalized.
(§12) Cellular response parameters were calculated using nonlinear regression to a sigmoidal single-site dose response model and the IC50 value of each cell line was calculated.
(§13) Genomic features were binned into six distinct categories, each of which was considered to be a “biomarker-positive” grouping: Mutated (non-synonymous, coding, and non-coding mutations), Amplified, Deleted, Overexpressed, Mutated or amplified (gain-of-function), and Mutated or deleted (loss-of-function). Two orthogonal significance tests were performed on each genomic feature as follows.
(§14) Student’s t-test: For each genomic feature within each of the six above categories, IC50 cell count values for biomarker-positive and biomarker-negative groups were […]

CMLT1 = test: Panel of growth inhibition assays (OncoPanel 240); assay type: cell-based; details: CML-T1; 72 h; leukemia; read-out: IC50 (Oncopanel, cell count)
Method: as §8, §9, §10, §11, §12, §13, §14

MDA-MB-468 [2] = test: Panel of growth inhibition assays (OncoPanel 240); assay type: cell-based; details: Homo sapiens, 72 h, breast cancer, read-out: IC50 (nmol/L) Oncopanel
Method: as §8, §9, §10, §11, §12, §13, §14

DOHH2 = test: Panel of growth inhibition assays (OncoPanel 240); assay type: cell-based; details: Homo sapiens, DOHH-2; 72 h; lymphoma; read-out: IC50 (Oncopanel, cell count)
Method: as §8, §9, §10, §11, §12, §13, §14

HEL9217 = test: Panel of growth inhibition assays (OncoPanel 240); assay type: cell-based; details: Homo sapiens, HEL 92.1.7; 72 h; leukemia; read-out: IC50 (Oncopanel, cell count)
Method: as §8, §9, §10, §11, §12, §13, §14

RPMI8226 = test: Panel of growth inhibition assays (OncoPanel 240); assay type: cell-based; details: Homo sapiens, RPMI-8226; 72 h; myeloma; read-out: IC50 (Oncopanel, cell count)
Method: as §8, §9, §10, §11, §12, §13, §14

CCRF-CEM = test: Panel of growth inhibition assays (OncoPanel 240); assay type: cell-based; details: Homo sapiens, 72 h, leukemia, read-out: IC50 (nmol/L) Cell count
Method: as §8, §9, §10, §11, §12, §13, §14

HIPK1 = molecular target: T1, HIPK1 (Homo sapiens, UniProt Q86Z02); test: KINOMEScan-based kinase selectivity assay; assay type: binding
T1 construct: purchased DiscoverX Corporation (Fremont, CA, USA)
T1 sequence (Q86Z02 whole entry): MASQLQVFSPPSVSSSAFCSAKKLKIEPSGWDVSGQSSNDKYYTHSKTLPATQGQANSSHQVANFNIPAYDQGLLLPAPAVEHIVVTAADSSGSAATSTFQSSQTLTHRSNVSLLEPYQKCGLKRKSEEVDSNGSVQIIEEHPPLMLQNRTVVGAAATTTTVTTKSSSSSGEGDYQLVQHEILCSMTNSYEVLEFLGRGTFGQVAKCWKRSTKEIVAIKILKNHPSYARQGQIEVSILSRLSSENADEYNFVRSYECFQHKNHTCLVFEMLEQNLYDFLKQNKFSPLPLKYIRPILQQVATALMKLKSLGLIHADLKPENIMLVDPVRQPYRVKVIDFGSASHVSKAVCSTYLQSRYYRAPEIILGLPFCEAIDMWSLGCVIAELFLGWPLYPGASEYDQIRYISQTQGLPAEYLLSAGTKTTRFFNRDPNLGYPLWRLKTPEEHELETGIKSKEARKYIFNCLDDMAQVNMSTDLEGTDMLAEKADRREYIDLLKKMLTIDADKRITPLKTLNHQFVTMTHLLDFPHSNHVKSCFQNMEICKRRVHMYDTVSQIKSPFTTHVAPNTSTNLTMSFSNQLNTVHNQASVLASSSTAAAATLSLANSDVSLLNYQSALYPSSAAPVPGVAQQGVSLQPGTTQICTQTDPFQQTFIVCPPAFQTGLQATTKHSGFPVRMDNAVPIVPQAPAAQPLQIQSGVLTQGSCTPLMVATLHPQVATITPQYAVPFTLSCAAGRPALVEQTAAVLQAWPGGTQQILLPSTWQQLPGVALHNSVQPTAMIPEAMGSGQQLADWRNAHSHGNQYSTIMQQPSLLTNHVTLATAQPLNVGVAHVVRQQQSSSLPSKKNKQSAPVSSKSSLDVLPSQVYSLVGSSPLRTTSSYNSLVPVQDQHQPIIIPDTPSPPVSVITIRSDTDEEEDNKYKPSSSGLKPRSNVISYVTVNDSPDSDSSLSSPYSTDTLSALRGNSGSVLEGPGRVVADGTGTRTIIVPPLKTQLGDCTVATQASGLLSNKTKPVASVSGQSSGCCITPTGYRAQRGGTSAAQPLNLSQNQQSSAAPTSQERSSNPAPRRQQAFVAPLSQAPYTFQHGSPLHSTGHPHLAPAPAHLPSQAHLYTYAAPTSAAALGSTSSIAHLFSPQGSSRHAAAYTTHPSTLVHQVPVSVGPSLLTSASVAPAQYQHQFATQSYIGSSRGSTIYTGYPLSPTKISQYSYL
Method: as §8, with “Charles, MO, USA), using OncoPanel 240 or 60.” left out

CLK2 = CLK2 (Homo sapiens, UniProt P49760); test: KINOMEScan-based kinase selectivity assay; assay type: binding
Chain of CLK2 (P49760 whole entry): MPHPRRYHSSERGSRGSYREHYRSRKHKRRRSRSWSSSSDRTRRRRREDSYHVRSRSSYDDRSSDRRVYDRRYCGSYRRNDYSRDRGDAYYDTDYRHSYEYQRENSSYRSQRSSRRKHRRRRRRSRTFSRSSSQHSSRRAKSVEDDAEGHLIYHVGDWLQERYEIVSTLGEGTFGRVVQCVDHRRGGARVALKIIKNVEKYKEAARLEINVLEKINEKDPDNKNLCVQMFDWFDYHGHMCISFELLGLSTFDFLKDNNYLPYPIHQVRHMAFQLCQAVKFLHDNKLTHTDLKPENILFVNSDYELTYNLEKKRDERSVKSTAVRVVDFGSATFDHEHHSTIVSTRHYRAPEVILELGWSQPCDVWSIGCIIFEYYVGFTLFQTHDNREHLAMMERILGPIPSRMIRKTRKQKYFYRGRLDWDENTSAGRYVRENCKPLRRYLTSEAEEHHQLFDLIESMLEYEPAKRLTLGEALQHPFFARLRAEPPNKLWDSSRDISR
Method: as §8, with “Charles, MO, USA), using OncoPanel 240 or 60.” left out

YSK4 = molecular target: T2, YSK4 (Homo sapiens, UniProt Q56UN5); test: KINOMEScan-based kinase selectivity assay; assay type: binding
T2 construct: purchased DiscoverX Corporation (Fremont, CA, USA)
T2 sequence (Q56UN5 whole entry): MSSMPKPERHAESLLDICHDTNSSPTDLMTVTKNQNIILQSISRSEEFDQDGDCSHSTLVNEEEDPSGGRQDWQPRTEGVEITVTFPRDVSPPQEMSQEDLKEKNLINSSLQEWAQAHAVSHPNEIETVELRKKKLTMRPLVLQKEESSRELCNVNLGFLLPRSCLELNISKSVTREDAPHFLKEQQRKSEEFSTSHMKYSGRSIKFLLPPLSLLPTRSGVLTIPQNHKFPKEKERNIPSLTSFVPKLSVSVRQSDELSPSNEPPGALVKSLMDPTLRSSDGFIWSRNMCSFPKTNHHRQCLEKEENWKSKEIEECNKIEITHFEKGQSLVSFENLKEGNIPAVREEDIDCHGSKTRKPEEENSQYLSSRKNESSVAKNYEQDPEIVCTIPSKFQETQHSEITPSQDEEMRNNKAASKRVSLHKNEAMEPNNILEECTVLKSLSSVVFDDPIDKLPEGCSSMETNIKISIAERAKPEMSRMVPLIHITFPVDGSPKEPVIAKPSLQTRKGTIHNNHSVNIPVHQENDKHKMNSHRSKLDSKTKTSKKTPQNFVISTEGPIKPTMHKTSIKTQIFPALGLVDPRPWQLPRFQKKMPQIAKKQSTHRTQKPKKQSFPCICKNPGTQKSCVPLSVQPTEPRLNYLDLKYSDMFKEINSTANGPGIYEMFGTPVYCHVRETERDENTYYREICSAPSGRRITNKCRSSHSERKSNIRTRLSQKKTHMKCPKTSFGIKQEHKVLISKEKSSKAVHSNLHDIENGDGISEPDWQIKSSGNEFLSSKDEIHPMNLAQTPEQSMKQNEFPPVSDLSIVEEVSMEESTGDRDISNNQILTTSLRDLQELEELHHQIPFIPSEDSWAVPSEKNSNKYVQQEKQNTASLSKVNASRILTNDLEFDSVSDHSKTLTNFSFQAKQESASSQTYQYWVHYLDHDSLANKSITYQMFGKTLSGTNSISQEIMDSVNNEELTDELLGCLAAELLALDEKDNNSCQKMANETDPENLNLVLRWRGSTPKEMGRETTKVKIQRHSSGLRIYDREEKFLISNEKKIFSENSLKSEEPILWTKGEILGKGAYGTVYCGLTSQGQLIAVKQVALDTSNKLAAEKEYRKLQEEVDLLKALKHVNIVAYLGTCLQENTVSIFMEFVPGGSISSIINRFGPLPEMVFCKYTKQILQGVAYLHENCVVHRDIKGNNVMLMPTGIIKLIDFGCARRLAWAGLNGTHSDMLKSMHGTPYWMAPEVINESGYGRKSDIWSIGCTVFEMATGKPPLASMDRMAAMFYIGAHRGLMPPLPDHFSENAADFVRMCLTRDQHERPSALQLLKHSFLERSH
Method: as §8, with “Charles, MO, USA), using OncoPanel 240 or 60.” left out

CLK4 = molecular target: T3, CLK4 (Homo sapiens, UniProt Q9HAZ1); test: KINOMEScan-based kinase selectivity assay; assay type: binding
T3 construct: purchased DiscoverX Corporation (Fremont, CA, USA)
Method: as §8, with “Charles, MO, USA), using OncoPanel 240 or 60.” left out

FLT3 D835H = molecular target: T4, FLT3 D835H (Homo sapiens, UniProt P36888, D835H); test: KINOMEScan-based kinase selectivity assay; assay type: binding
T4 construct: purchased DiscoverX Corporation (Fremont, CA, USA)
Method: as §8, with “Charles, MO, USA), using OncoPanel 240 or 60.” left out

ERK8 = molecular target: T5, ERK8 (Homo sapiens, UniProt Q8TD08); test: KINOMEScan-based kinase selectivity assay; assay type: binding
T5 construct: purchased DiscoverX Corporation (Fremont, CA, USA)
Method: as §8, with “Charles, MO, USA), using OncoPanel 240 or 60.” left out

CLK3 = CLK3 (Homo sapiens, UniProt P49761); test: KINOMEScan-based kinase selectivity assay; assay type: binding
Chain of CLK3 (P49761 whole entry): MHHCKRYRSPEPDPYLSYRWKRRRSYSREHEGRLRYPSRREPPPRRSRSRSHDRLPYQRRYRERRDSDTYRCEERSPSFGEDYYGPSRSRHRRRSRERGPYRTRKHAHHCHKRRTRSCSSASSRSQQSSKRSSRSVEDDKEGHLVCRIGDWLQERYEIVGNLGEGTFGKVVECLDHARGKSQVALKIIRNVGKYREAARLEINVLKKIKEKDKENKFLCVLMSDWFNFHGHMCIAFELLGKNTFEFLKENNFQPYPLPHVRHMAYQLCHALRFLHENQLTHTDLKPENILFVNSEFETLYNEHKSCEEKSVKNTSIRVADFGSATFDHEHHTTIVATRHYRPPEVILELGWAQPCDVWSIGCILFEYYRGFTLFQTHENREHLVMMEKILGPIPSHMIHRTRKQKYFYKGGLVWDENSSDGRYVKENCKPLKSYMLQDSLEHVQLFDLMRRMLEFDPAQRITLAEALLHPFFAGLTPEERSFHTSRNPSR
Method: as §8, with “Charles, MO, USA), using OncoPanel 240 or 60.” left out

CLK1 = CLK1 (Homo sapiens, UniProt P49759); test: KINOMEScan-based kinase selectivity assay; assay type: binding
Chain of CLK1 (P49759 whole entry): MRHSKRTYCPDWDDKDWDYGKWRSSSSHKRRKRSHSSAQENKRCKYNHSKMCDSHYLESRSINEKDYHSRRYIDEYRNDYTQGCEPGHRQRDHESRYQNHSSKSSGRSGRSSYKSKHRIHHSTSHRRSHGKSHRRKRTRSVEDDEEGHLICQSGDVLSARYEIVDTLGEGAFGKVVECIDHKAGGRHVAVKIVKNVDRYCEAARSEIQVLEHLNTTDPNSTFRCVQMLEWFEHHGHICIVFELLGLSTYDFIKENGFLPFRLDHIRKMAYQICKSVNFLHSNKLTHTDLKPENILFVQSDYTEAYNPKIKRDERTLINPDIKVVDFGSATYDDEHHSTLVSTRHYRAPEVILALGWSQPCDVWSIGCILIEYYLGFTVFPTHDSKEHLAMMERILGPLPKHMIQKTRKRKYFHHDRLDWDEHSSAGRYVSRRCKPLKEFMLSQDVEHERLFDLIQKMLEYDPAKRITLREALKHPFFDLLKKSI
Method: as §8, with “Charles, MO, USA), using OncoPanel 240 or 60.” left out

IRAK4 = molecular target: T6, IRAK4 (Homo sapiens, UniProt Q9NWZ3); test: KINOMEScan-based kinase selectivity assay; assay type: binding
T6 construct: purchased DiscoverX Corporation (Fremont, CA, USA)
T6 sequence (Q9NWZ3 whole entry): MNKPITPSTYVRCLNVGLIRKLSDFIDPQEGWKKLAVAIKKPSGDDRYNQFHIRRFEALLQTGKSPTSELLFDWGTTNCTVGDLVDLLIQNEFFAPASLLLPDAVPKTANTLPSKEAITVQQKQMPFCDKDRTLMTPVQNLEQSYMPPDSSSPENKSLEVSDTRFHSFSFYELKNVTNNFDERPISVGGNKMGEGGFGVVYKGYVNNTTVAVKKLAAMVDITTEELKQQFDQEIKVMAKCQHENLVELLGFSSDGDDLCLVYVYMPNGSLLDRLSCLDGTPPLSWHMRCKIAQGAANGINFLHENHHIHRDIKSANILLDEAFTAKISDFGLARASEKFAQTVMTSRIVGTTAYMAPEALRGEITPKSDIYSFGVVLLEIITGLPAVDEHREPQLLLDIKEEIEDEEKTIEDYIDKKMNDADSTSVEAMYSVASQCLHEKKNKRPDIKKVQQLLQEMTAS
Method: as §8, with “Charles, MO, USA), using OncoPanel 240 or 60.” left out

DYRK2 = molecular target: T7, DYRK2 (Homo sapiens, UniProt Q92630); test: KINOMEScan-based kinase selectivity assay; assay type: binding
T7 construct: purchased DiscoverX Corporation (Fremont, CA, USA)
T7 sequence (Q92630 whole entry): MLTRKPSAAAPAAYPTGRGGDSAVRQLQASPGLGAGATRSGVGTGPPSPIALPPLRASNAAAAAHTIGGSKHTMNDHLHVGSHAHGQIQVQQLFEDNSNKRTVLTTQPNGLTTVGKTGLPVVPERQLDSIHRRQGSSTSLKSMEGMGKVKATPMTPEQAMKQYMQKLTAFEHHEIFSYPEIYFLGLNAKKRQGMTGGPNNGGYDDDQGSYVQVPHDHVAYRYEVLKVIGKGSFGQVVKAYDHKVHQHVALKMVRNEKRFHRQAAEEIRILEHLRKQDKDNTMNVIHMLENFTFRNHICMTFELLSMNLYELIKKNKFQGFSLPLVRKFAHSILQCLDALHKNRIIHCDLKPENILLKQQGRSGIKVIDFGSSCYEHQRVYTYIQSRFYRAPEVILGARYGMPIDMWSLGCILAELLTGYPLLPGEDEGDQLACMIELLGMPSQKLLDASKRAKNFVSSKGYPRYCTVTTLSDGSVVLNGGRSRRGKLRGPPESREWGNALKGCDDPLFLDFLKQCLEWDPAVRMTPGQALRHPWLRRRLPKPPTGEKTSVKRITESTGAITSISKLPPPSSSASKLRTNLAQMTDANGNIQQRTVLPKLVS
Method: as §8, with “Charles, MO, USA), using OncoPanel 240 or 60.” left out

DYRK1A = molecular target: T8, DYRK1A (Homo sapiens, UniProt Q13627); test: KINOMEScan-based kinase selectivity assay; assay type: binding
T8 construct: purchased DiscoverX Corporation (Fremont, CA, USA)
Method: as §8, with “Charles, MO, USA), using OncoPanel 240 or 60.” left out

`CNc1nc(NCc2ncccn2)c2c(-c3ccc4ncccc4c3)c[nH]c2n1` [T-025, N ^2‐methyl‐N ^4‐[pyrimidin‐2‐ylmethyl]‐5‐[quinolin‐6‐yl]‐7H‐pyrrolo[2,3‐d]pyrimidine‐2,4‐diamine] was tested, and the IC50 (786-O) was 340 nM, the IC50 (COLO320HSR) was 91.8 nM and the IC50 (MDA-MB-468 [1]) was 79.8 nM. For the same compound, the IC50 (Wi38) was 257 nM, the IC50 (BJ) was 355 nM and the IC50 (NCI-H1048) was 84.4 nM. It also gave an IC50 (MEG01) of 305 nM, an IC50 (CMLT1) of 69.7 nM and an IC50 (MDA-MB-468 [2]) of 47.1 nmol/L. The IC50 (DOHH2) was 39.5 nM, the IC50 (HEL9217) was 38.3 nM and the IC50 (RPMI8226) was 99.3 nM. It also gave an IC50 (CCRF-CEM) of 45.9 nmol/L, a Kd (HIPK1) of 55 nM and an inhibition at 0.3 µM (HIPK1; 300 nmol/L, n = 2) of 94.6%. It also gave a Kd (CLK2) of 0.096 nM, an inhibition at 0.3 µM (CLK2; 300 nmol/L, n = 2) of 93.1% and a Kd (YSK4) of 33 nM. The inhibition at 0.3 µM (YSK4; 300 nmol/L, n = 2) was 97.5%, the Kd (CLK4) was 0.61 nM and the inhibition at 0.3 µM (CLK4; 300 nmol/L, n = 2) was 100%. It also gave a Kd (FLT3 D835H) of 94 nM, an inhibition at 0.3 µM (FLT3 D835H; 300 nmol/L, n = 2) of 98.8% and a Kd (ERK8) of 140 nM. It also gave an inhibition at 0.3 µM (ERK8; 300 nmol/L, n = 2) of 94.8%, a Kd (CLK3) of 6.5 nM and an inhibition at 0.3 µM (CLK3; 300 nmol/L, n = 2) of 90.2%. For the same compound, the Kd (CLK1) was 4.8 nM, the inhibition at 0.3 µM (CLK1; 300 nmol/L, n = 2) was 99.4% and the Kd (IRAK4) was 54 nM. It also gave an inhibition at 0.3 µM (IRAK4; 300 nmol/L, n = 2) of 94.8%, a Kd (DYRK2) of 32 nM and an inhibition at 0.3 µM (DYRK2; 300 nmol/L, n = 2) of 98.6%. For the same compound, the Kd (DYRK1A) was 0.074 nM and the inhibition at 0.3 µM (DYRK1A; 300 nmol/L, n = 2) was 100%.
